Test results as given in ChEMBL document CHEMBL1124209, “Phosphonoformate and phosphonoacetate derivatives of 5-substituted 2'-deoxyuridines: synthesis and antiviral activity” (1988).
Converted amounts (≈) assume the structure as drawn.

Tests used:
Type in all cases: functional
Human alphaherpesvirus 1 [1] = assay: Mean survival time in HSV-1 infected mice, after intraperitoneal administration of 1 mg/kg of compound
Human alphaherpesvirus 1 [2] = assay: Mean survival time in HSV-1 infected mice, after peroral administration of 5 mg/kg of compound; conditions: route oral
Human alphaherpesvirus 1 [3] = assay: Mean survival time in HSV-1 infected mice, after intraperitoneal administration of 0.5 mg/kg of compound
Human alphaherpesvirus 1 [4] = assay: Minimum inhibitory concentration causing 25% inhibition of cytopathic effect induced by Herpes simplex virus(HSV) -1 (thymidine kinase deficient) in vero cells
Human alphaherpesvirus 1 [5] = assay: Minimum inhibitory concentration causing 25% inhibition cytopathic effect induced by Herpes simplex virus-1 (Brand) in HEp-2 cells
Human alphaherpesvirus 1 [6] = assay: Cumulative mortality in percent of HSV-1 infected mice, after peroral administration of 10 mg/kg of compound; conditions: route oral
Mus musculus [7] = assay: Cumulative lesions in HSV-1 infected mice, after administration of 0.1 % of compound intracutaneously
Human alphaherpesvirus 1 [8] = assay: Mean survival time in HSV-1 infected mice, after intraperitoneal administration of 5 mg/kg of compound
Human alphaherpesvirus 1 [9] = assay: Minimum inhibitory concentration causing 25% inhibition of cytopathic effect induced by Herpes simplex virus-1 (Brand) in vero cells
Human alphaherpesvirus 1 [10] = assay: Cumulative mortality in percent of HSV-1 infected mice, after peroral administration of 1 mg/kg of compound; conditions: route oral
Human alphaherpesvirus 1 [11] = assay: Minimum inhibitory concentration causing 25% inhibition of cytopathic effect induced by Herpes simplex virus(HSV) -1 (thymidine kinase deficient) in HEp-2 cells
Human alphaherpesvirus 1 [12] = assay: Mean survival time in HSV-1 infected mice, after peroral administration of 10 mg/kg of compound; conditions: route oral
Human alphaherpesvirus 1 [13] = assay: Cumulative mortality in percent of HSV-1 infected mice, after intraperitoneal administration of 0.5 mg/kg of compound
Human alphaherpesvirus 1 [14] = assay: Cumulative mortality in percent of HSV-1 infected mice, after intraperitoneal administration of 5 mg/kg of compound
Mus musculus [15] = assay: Cumulative lesions in HSV-1 infected mice, after administration of 0.3 % of compound intracutaneously
Mus musculus [16] = assay: Mean duration of lesions in HSV-1 infected mice, after administration of 0.1 % of compound intracutaneously
Human alphaherpesvirus 1 [17] = assay: Minimum inhibitory concentration causing 25% inhibition of cytopathic effect induced by herpes simplex virus (HSV)-1 (K979) in vero cells.
Human alphaherpesvirus 1 [18] = assay: Minimum inhibitory concentration causing 25% inhibition of cytopathic effect induced by Herpes simplex virus-1 (K979) in HEp-2 cells
Oryctolagus cuniculus [19] = organism: Oryctolagus cuniculus; assay: Minimum cytotoxic concentration causing toxic effects on uninfected cells in rabbit
Human alphaherpesvirus 1 [20] = assay: Cumulative mortality in percent of HSV-1 infected mice, after peroral administration of 5 mg/kg of compound; conditions: route oral
Human alphaherpesvirus 1 [21] = assay: Cumulative mortality in percent of HSV-1 infected mice, after intraperitoneal administration of 1 mg/kg of compound
Mus musculus [22] = assay: Mean duration of lesions in HSV-1 infected mice, after administration of 0.3 % of compound intracutaneously
Human alphaherpesvirus 1 [23] = assay: Mean survival time in HSV-1 infected mice, after peroral administration of 1 mg/kg of compound; conditions: route oral
Human alphaherpesvirus 2 [24] = assay: Minimum inhibitory concentration causing 25% inhibition of cytopathic effect induced by Herpes simplex virus(HSV) -2 (thymidine kinase deficient) in HEp-2 cells
Human alphaherpesvirus 2 [25] = assay: Minimum inhibitory concentration causing 25% inhibition of cytopathic effect induced by Herpes simplex virus(HSV) -2 (thymidine kinase deficient) in vero cells
Human alphaherpesvirus 1 [26] = assay: Minimum inhibitory concentration causing 25% inhibition cytopathic effect induced by Herpes simplex virus(HSV) -1 (thymidine kinase deficient) in HEp-2 cells
Human alphaherpesvirus 2 [27] = assay: Minimum inhibitory concentration causing 25% inhibition cytopathic effect induced by Herpes simplex virus(HSV) -2 (thymidine kinase deficient) in vero cells
Mus musculus [28] = assay: Mean survival time in HSV-1 infected mice, after intraperitoneal administration of 25 mg/kg
Mus musculus [29] = assay: Mean survival time in HSV-1 infected mice, after peroral administration of 100 mg/kg; conditions: route oral
Mus musculus [30] = assay: Cumulative mortality in percent of HSV-1 infected mice, after intraperitoneal administration of 25 mg/kg
Mus musculus [31] = assay: Cumulative mortality in percent of HSV-1 infected mice, after peroral administration of 100 mg/kg of compound; conditions: route oral
Human alphaherpesvirus 1 [32] = assay: Minimum inhibitory concentration causing 50% inhibition of cytopathic effect induced by HSV-1(thymidine kinase deficient) in PRK cells
Human alphaherpesvirus 2 [33] = assay: Minimum inhibitory concentration causing 50% inhibition of cytopathic effect induced by HSV-2 in PRK cells
Human alphaherpesvirus 1 [34] = assay: Minimum inhibitory concentration causing 50% inhibition of cytopathic effect induced by HSV-1 in PRK cells
Oryctolagus cuniculus [35] = organism: Oryctolagus cuniculus; assay: Minimum cytotoxic concentration of compound causing toxic effects on uninfected cells
Human alphaherpesvirus 2 [36] = assay: Minimum inhibitory concentration causing 25% inhibition cytopathic effect induced by Herpes simplex virus(HSV) -2 (thymidine kinase deficient) in HEp -2 cells
Human alphaherpesvirus 1 [37] = assay: Minimum inhibitory concentration causing 50% inhibition of cytopathic effect induced by HSV-1 (thymidine kinase deficient) in PRK cells
Human alphaherpesvirus 1 [38] = assay: Minimum inhibitory concentration of compound causing 50% inhibition of cytopathic effect induced by HSV-1 in PRK cells
Human alphaherpesvirus 1 [39] = assay: Minimum inhibitory concentration of compound causing 50% inhibition of cytopathic effect induced by HSV-1 (thymidine kinase deficient) in PRK cells
Human alphaherpesvirus 2 [40] = assay: Minimum inhibitory concentration of compound causing 50% inhibition of cytopathic effect induced by HSV-2 in PRK cells

SMILES | MIC (Human alphaherpesvirus 1 [4]) | MIC (Human alphaherpesvirus 1 [5]) | MIC (Human alphaherpesvirus 1 [9]) | MIC (Human alphaherpesvirus 1 [11]) | MIC (Human alphaherpesvirus 1 [17]) | MIC (Human alphaherpesvirus 1 [18]) | MTC (Oryctolagus cuniculus [19]) | MIC (Human alphaherpesvirus 2 [24]) | MIC (Human alphaherpesvirus 2 [25]) | also measured
CCOC(=O)CP(=O)(OC)OC[C@H]1O[C@@H](n2cc(CCCl)c(=O)[nH]c2=O)C[C@@H]1O (some centres not stated) | 66 µM (≈ 30 µg/mL) | 66 µM (≈ 30 µg/mL) | 6.6 µM (≈ 3 µg/mL) | > 220 µM | > 220 µM | > 220 µM | 726 µM | > 220 µM | > 220 µM | MST (Human alphaherpesvirus 1 [1]): 11.9 days; MST (Human alphaherpesvirus 1 [2]): 12.8 days; MST (Human alphaherpesvirus 1 [3]): 13.9 days; CMP (Human alphaherpesvirus 1 [6]): 67; lesions (Mus musculus [7]): 83; MST (Human alphaherpesvirus 1 [8]): 11.8 days; CMP (Human alphaherpesvirus 1 [10]): 100; MST (Human alphaherpesvirus 1 [12]): 11.5 days; CMP (Human alphaherpesvirus 1 [13]): 58; CMP (Human alphaherpesvirus 1 [14]): 83; lesions (Mus musculus [15]): 58; MDL (Mus musculus [16]): 10.6 days; CMP (Human alphaherpesvirus 1 [20]): 75; CMP (Human alphaherpesvirus 1 [21]): 92; MDL (Mus musculus [22]): 6 days; MST (Human alphaherpesvirus 1 [23]): 8.9 days
CCOC(=O)P(=O)(OC)OC[C@H]1O[C@@H](n2cc(I)c(=O)[nH]c2=O)C[C@@H]1O (some centres not stated) | 19.8 µM (≈ 9.98 µg/mL) | 2 µM (≈ 1.01 µg/mL) | 0.6 µM (≈ 0.303 µg/mL) |  | 5.9 µM (≈ 2.97 µg/mL) | 5.9 µM (≈ 2.97 µg/mL) | 198 µM | 5.9 µM (≈ 2.97 µg/mL) |  | MIC (Human alphaherpesvirus 1 [26]): 2 µM (≈ 1.01 µg/mL); MIC (Human alphaherpesvirus 2 [27]): 5.9 µM (≈ 2.97 µg/mL)
CCOC(=O)P(=O)(OC)OC[C@H]1O[C@@H](n2cc(CCCl)c(=O)[nH]c2=O)C[C@@H]1O (some centres not stated) | 68.1 µM (≈ 30 µg/mL) | 0.7 µM (≈ 0.309 µg/mL) | 0.7 µM (≈ 0.309 µg/mL) | > 227 µM | 227 µM (≈ 100 µg/mL) | 22.7 µM (≈ 10 µg/mL) | 749 µM | > 227 µM | > 227 µM | MST (Human alphaherpesvirus 1 [1]): 15.6 days; MST (Human alphaherpesvirus 1 [2]): 16 days; MST (Human alphaherpesvirus 1 [3]): 16.7 days; CMP (Human alphaherpesvirus 1 [6]): 13; lesions (Mus musculus [7]): 33; MST (Human alphaherpesvirus 1 [8]): 20 days; CMP (Human alphaherpesvirus 1 [10]): 63; MST (Human alphaherpesvirus 1 [12]): 18.9 days; CMP (Human alphaherpesvirus 1 [13]): 33; CMP (Human alphaherpesvirus 1 [14]): 0; lesions (Mus musculus [15]): 17; MDL (Mus musculus [16]): 3.3 days; CMP (Human alphaherpesvirus 1 [20]): 38; CMP (Human alphaherpesvirus 1 [21]): 42; MDL (Mus musculus [22]): 1.4 days; MST (Human alphaherpesvirus 1 [23]): 13.9 days
Nc1nc2c(ncn2COCCO)c(=O)[nH]1 [ACYCLOVIR] | 44 µM (≈ 9.91 µg/mL) | 4.4 µM (≈ 0.991 µg/mL) | 0.01 µM (≈ 0.00225 µg/mL) | 440 µM (≈ 99.1 µg/mL) | 1.3 µM (≈ 0.293 µg/mL) | 13.2 µM (≈ 2.97 µg/mL) | 440 µM | 440 µM (≈ 99.1 µg/mL) | 132 µM (≈ 29.7 µg/mL) | MST (Mus musculus [28]): 18.6 days; MST (Mus musculus [29]): 18.9 days; CMP (Mus musculus [30]): 15; CMP (Mus musculus [31]): 10
O=c1[nH]c(=O)n([C@H]2C[C@H](O)[C@@H](CO)O2)cc1/C=C/Br [BRIVUDINE] |  |  |  |  |  |  | >1302 µM |  |  | MIC (Human alphaherpesvirus 1 [32]): 1300 µM (≈ 434 µg/mL); MIC (Human alphaherpesvirus 2 [33]): 32.6 µM (≈ 10.9 µg/mL); MIC (Human alphaherpesvirus 1 [34]): 0.07 µM (≈ 0.0233 µg/mL); CMP (Mus musculus [31]): 30
O=C(O)P(=O)(O)O [FOSCARNET] | 79.4 µM (≈ 10 µg/mL) | 794 µM (≈ 100 µg/mL) | 238 µM (≈ 30 µg/mL) | 794 µM (≈ 100 µg/mL) | 238 µM (≈ 30 µg/mL) | 238 µM (≈ 30 µg/mL) | 2.619 µM |  | 79.4 µM (≈ 10 µg/mL) | MTC (Oryctolagus cuniculus [35]): >3174 µM; MIC (Human alphaherpesvirus 2 [36]): 238 µM (≈ 30 µg/mL); MIC (Human alphaherpesvirus 2 [33]): 159 µM (≈ 20 µg/mL); MIC (Human alphaherpesvirus 1 [37]): 317 µM (≈ 39.9 µg/mL); MIC (Human alphaherpesvirus 1 [34]): 238 µM (≈ 30 µg/mL)
O=C(O)CP(=O)(O)O [FOSFONET] | 71.4 µM (≈ 10 µg/mL) | 214 µM (≈ 30 µg/mL) | 71.4 µM (≈ 10 µg/mL) | 214 µM (≈ 30 µg/mL) | 71.4 µM (≈ 10 µg/mL) | 71.4 µM (≈ 10 µg/mL) | 2.356 µM | 214 µM (≈ 30 µg/mL) | 71.4 µM (≈ 10 µg/mL) | MTC (Oryctolagus cuniculus [35]): >2856 µM; MIC (Human alphaherpesvirus 1 [38]): 286 µM (≈ 40 µg/mL); MIC (Human alphaherpesvirus 1 [39]): 286 µM (≈ 40 µg/mL); MIC (Human alphaherpesvirus 2 [40]): 143 µM (≈ 20 µg/mL)
O=c1[nH]c(=O)n([C@H]2C[C@H](O)[C@@H](CO)O2)cc1I [IDOXURIDINE] | 8.4 µM (≈ 2.97 µg/mL) | 0.8 µM (≈ 0.283 µg/mL) | 0.3 µM (≈ 0.106 µg/mL) |  | 2.8 µM (≈ 0.991 µg/mL) | 0.8 µM (≈ 0.283 µg/mL) | 281 µM | 8.4 µM (≈ 2.97 µg/mL) |  | MIC (Human alphaherpesvirus 1 [26]): 0.8 µM (≈ 0.283 µg/mL); MIC (Human alphaherpesvirus 2 [27]): > 281 µM
